Measured values taken from PubChem BioAssay (NCI).
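Following 48 hours of exposure in 96-well plates, responses at five concentrations were used to interpolate endpoints linearly. Here, GI50 denotes the concentration required for 50% inhibition of growth. TGI: concentration producing complete growth inhibition.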

What was measured:
Test in all cases: NCI tumour cell line growth inhibition, 48 h
SW-620 colon = test system: SW-620 colon
BT-549 breast = test system: BT-549 breast
HT29 colon = test system: HT29 colon
EKVX NSCLC = test system: EKVX NSCLC
MDA-MB-231 breast = test system: MDA-MB-231 breast
T-47D breast = test system: T-47D breast
UO-31 renal = test system: UO-31 renal
MALME-3M melanoma = test system: MALME-3M melanoma
SF-268 CNS = test system: SF-268 CNS
HCT-15 colon = test system: HCT-15 colon
LOX IMVI melanoma = test system: LOX IMVI melanoma
HS 578T breast = test system: HS 578T breast
OVCAR-3 ovarian = test system: OVCAR-3 ovarian
UACC-257 melanoma = test system: UACC-257 melanoma
786-0 renal = test system: 786-0 renal
CAKI-1 renal = test system: CAKI-1 renal
PC-3 prostate = test system: PC-3 prostate
SF-295 CNS = test system: SF-295 CNS
HOP-62 NSCLC = test system: HOP-62 NSCLC
M14 melanoma = test system: M14 melanoma
SK-MEL-2 melanoma = test system: SK-MEL-2 melanoma
HCC-2998 colon = test system: HCC-2998 colon
OVCAR-5 ovarian = test system: OVCAR-5 ovarian
SK-MEL-5 melanoma = test system: SK-MEL-5 melanoma
NCI-H522 lung = test system: NCI-H522 lung
SNB-75 CNS = test system: SNB-75 CNS
HCT-116 colon = test system: HCT-116 colon
NCI/ADR-RES ovarian = test system: NCI/ADR-RES ovarian
NCI-H460 lung = test system: NCI-H460 lung

With `CC[C@H](CO)Nc1ccc2ncc(C#Cc3cncc(C(=O)Nc4ccc(CN5CCN(C)CC5)c(C(F)(F)F)c4)c3)n2n1` the TGI (SW-620 colon) was 803 nM, the GI50 (BT-549 breast) was 580 nM and the TGI (BT-549 breast) was 1670 nM. The GI50 (HT29 colon) was 221 nM, the TGI (HT29 colon) was 933 nM and the GI50 (EKVX NSCLC) was 391 nM. For the same compound, the TGI (EKVX NSCLC) was 1620 nM, the GI50 (MDA-MB-231 breast) was 142 nM and the TGI (MDA-MB-231 breast) was 903 nM. The GI50 (T-47D breast) was 900 nM, the TGI (T-47D breast) was 2920 nM and the GI50 (UO-31 renal) was 940 nM. It also gave a TGI (UO-31 renal) of 2140 nM, a GI50 (MALME-3M melanoma) of 660 nM and a TGI (MALME-3M melanoma) of 1430 nM. The GI50 (SF-268 CNS) was 246 nM, the TGI (SF-268 CNS) was 1220 nM and the GI50 (HCT-15 colon) was 813 nM. The TGI (HCT-15 colon) was 2070 nM, the GI50 (LOX IMVI melanoma) was 206 nM and the TGI (LOX IMVI melanoma) was 817 nM. The GI50 (HS 578T breast) was 200 nM, the TGI (HS 578T breast) was 1070 nM and the GI50 (OVCAR-3 ovarian) was 576 nM. For the same compound, the TGI (OVCAR-3 ovarian) was 1630 nM, the GI50 (UACC-257 melanoma) was 760 nM and the TGI (UACC-257 melanoma) was 1530 nM. It also gave a GI50 (786-0 renal) of 362 nM, a TGI (786-0 renal) of 1080 nM and a GI50 (CAKI-1 renal) of 349 nM. It also gave a TGI (CAKI-1 renal) of 1110 nM, a GI50 (PC-3 prostate) of 670 nM and a TGI (PC-3 prostate) of 2800 nM. It also gave a GI50 (SF-295 CNS) of 555 nM, a TGI (SF-295 CNS) of 1600 nM and a GI50 (HOP-62 NSCLC) of 288 nM. It also gave a TGI (HOP-62 NSCLC) of 1090 nM, a GI50 (M14 melanoma) of 322 nM and a TGI (M14 melanoma) of 1010 nM. It also gave a GI50 (SK-MEL-2 melanoma) of 470 nM, a TGI (SK-MEL-2 melanoma) of 1210 nM and a GI50 (HCC-2998 colon) of 703 nM. It also gave a TGI (HCC-2998 colon) of 1690 nM, a GI50 (OVCAR-5 ovarian) of 553 nM and a TGI (OVCAR-5 ovarian) of 2070 nM. The GI50 (SK-MEL-5 melanoma) was 766 nM, the TGI (SK-MEL-5 melanoma) was 1460 nM and the GI50 (NCI-H522 lung) was 238 nM. It also gave a TGI (NCI-H522 lung) of 997 nM, a GI50 (SNB-75 CNS) of 48.4 nM and a TGI (SNB-75 CNS) of 314 nM. It also gave a GI50 (HCT-116 colon) of 170 nM, a TGI (HCT-116 colon) of 662 nM and a GI50 (NCI/ADR-RES ovarian) of 5850 nM. It also gave a TGI (NCI/ADR-RES ovarian) of 13400 nM, a GI50 (NCI-H460 lung) of 423 nM and a TGI (NCI-H460 lung) of 1140 nM.
